Experimental data from ChEMBL document CHEMBL1201862, “PubChem BioAssay data set” (2004).
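Following 48 hours of exposure in 96-well plates, responses at five concentrations were used to interpolate endpoints linearly. GI50: concentration for 50% inhibition of growth.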 Calls of active or inactive are those of the source. No stated cut-off is given here; in the data, active = GI50 up to about 1.1 µM and inactive = higher.

Tests used:
Test in all cases: DTP human tumour cell line panel, 48 h
[1] = tested on: SN12C
[2] = tested on: HCT-116
[3] = tested on: UACC-257
[4] = tested on: MDA-N
[5] = tested on: A498
[6] = tested on: NCI-H522
[7] = tested on: IGROV-1
[8] = tested on: MCF7
[9] = tested on: SF-295
[10] = tested on: RPMI-8226
[11] = tested on: MDA-MB-231
[12] = tested on: SW-620
[13] = tested on: HOP-92
[14] = tested on: 786-0
[15] = tested on: TK-10
[16] = tested on: HOP-62
[17] = tested on: HCT-15
[18] = tested on: NCI-H460
[19] = tested on: SF-539
[20] = tested on: BT-549

Row | Compound | GI50 [1] | GI50 [2] | GI50 [3] | GI50 [4] | GI50 [5] | GI50 [6] | GI50 [7] | GI50 [8] | GI50 [9] | GI50 [10] | GI50 [11] | GI50 [12] | GI50 [13] | GI50 [14] | GI50 [15] | GI50 [16] | GI50 [17] [µM] | GI50 [18] | GI50 [19] | GI50 [20]
1 | c1ccc(C[N+]23C(CC[C@H]2c2ccccc2)CC[C@H]3c2ccccc2)cc1 (some centres undefined) | 37.5 µM (inactive) | 28.8 µM (inactive) | 6.24 µM (inactive) | 21.2 µM (inactive) | > 100 µM (inactive) | 18 µM (inactive) | 21.6 µM (inactive) | 24.4 µM (inactive) | 35.3 µM (inactive) | 2.94 µM (inactive) | 34.9 µM (inactive) | 43.4 µM (inactive) | 13.2 µM (inactive) | 32.4 µM (inactive) | 74.1 µM (inactive) | 33.5 µM (inactive) |  |  |  | 
2 | [O-][n+]1onc2c1CCC(=N\O)/C2=N/Nc1ccccc1 | > 100 µM (inactive) | > 100 µM (inactive) | > 100 µM (inactive) | > 100 µM (inactive) | > 100 µM (inactive) | > 100 µM (inactive) | > 100 µM (inactive) | > 100 µM (inactive) | > 100 µM (inactive) | > 100 µM (inactive) | > 100 µM (inactive) | > 100 µM (inactive) |  | > 100 µM (inactive) | > 100 µM (inactive) | > 100 µM (inactive) | > 100 | > 100 µM (inactive) | > 100 µM (inactive) | 
3 | Cc1cc(C)nc(NS(=O)(=O)c2ccc(Nc3c4ccccc4nc4c(C(=O)Nc5ccc(S(N)(=O)=O)cc5)cccc34)cc2)n1 | > 100 µM (inactive) | 83.8 µM (inactive) | > 100 µM (inactive) |  | 43.3 µM (inactive) | 30.8 µM (inactive) | > 100 µM (inactive) |  | > 100 µM (inactive) | > 100 µM (inactive) |  | > 100 µM (inactive) | 30.9 µM (inactive) | > 100 µM (inactive) | > 10 µM (inactive) | > 100 µM (inactive) | 47.1 | 88.1 µM (inactive) | > 100 µM (inactive) | 
4 | CC(C)OC(=O)NNc1cccc(Cl)c1 | > 100 µM (inactive) | > 100 µM (inactive) | > 100 µM (inactive) | > 100 µM (inactive) | > 100 µM (inactive) |  |  | > 100 µM (inactive) | > 100 µM (inactive) | 66.1 µM (inactive) | > 100 µM (inactive) | > 100 µM (inactive) | > 100 µM (inactive) | > 100 µM (inactive) | > 100 µM (inactive) | > 100 µM (inactive) | > 100 | > 100 µM (inactive) | > 100 µM (inactive) | 
5 | O=C1c2cccc3cc([N+](=O)[O-])cc(c23)C(=O)N1CCNCCNCCNCCN1C(=O)c2cccc3cc([N+](=O)[O-])cc(c23)C1=O | 0.00251 µM (active) | < 0.001 µM (active) | 0.0311 µM (active) |  | 0.0128 µM (active) | 0.116 µM (active) | 0.01 µM (active) |  | < 0.001 µM (active) | 0.01 µM (active) |  | < 0.001 µM (active) | 0.00343 µM (active) | < 0.001 µM (active) | 0.092 µM (active) | 0.00143 µM (active) | 0.01 | < 0.001 µM (active) | 0.00547 µM (active) | 
6 | Cc1ccc([N+](=O)[O-])c2c(NCCC[N+](C)(C)[O-])c3ccccc3nc12 | 2.19 µM (inactive) | 1.52 µM (inactive) | 2.41 µM (inactive) |  | 1.89 µM (inactive) | 0.204 µM (active) | 1.19 µM (inactive) | 0.401 µM (active) | 3.43 µM (inactive) | 2.74 µM (inactive) | 1.86 µM (inactive) | 2.18 µM (inactive) | 0.962 µM (active) | 2.02 µM (inactive) | 11.6 µM (inactive) | 2.56 µM (inactive) | 4.99 | 0.716 µM (active) | 2.6 µM (inactive) | 1.5 µM (inactive)
7 | O=C(Nc1nc2ncn(CCI)c2c(=O)[nH]1)c1ccccc1 | 59.3 µM (inactive) | > 100 µM (inactive) | > 100 µM (inactive) |  | 16 µM (inactive) | 28.3 µM (inactive) | > 100 µM (inactive) |  | 34 µM (inactive) | > 100 µM (inactive) |  | > 100 µM (inactive) | 27.9 µM (inactive) | 46.1 µM (inactive) | 31.3 µM (inactive) | 30.1 µM (inactive) | 98.6 | > 100 µM (inactive) | 26.1 µM (inactive) | 
8 | Cc1cc2occ(-c3ccc(Cl)cc3)c2c(=O)o1 | > 100 µM (inactive) | > 100 µM (inactive) | > 100 µM (inactive) |  | > 100 µM (inactive) | 66.5 µM (inactive) | > 100 µM (inactive) |  | > 100 µM (inactive) | 61.4 µM (inactive) |  | > 100 µM (inactive) | > 100 µM (inactive) | > 100 µM (inactive) | > 100 µM (inactive) | > 100 µM (inactive) | > 100 | > 100 µM (inactive) | > 100 µM (inactive) | 
9 | N#CC(C(=O)C(=O)Nc1c(Cl)cccc1Cl)c1ccccc1 (centres undefined) | > 10 µM (inactive) | > 10 µM (inactive) | > 10 µM (inactive) |  | > 10 µM (inactive) | > 10 µM (inactive) | > 10 µM (inactive) |  | 0.302 µM (active) | > 10 µM (inactive) |  | > 10 µM (inactive) | > 10 µM (inactive) | > 10 µM (inactive) | > 10 µM (inactive) | > 10 µM (inactive) | > 10 | > 10 µM (inactive) | > 10 µM (inactive) | 
10 | Cc1cccc(/N=N/c2ccc(/N=N/c3c(O)ccc4ccccc34)cc2C)c1 |  | > 100 µM (inactive) | > 100 µM (inactive) |  |  | 14.2 µM (inactive) | > 100 µM (inactive) | > 100 µM (inactive) | 44.2 µM (inactive) | > 100 µM (inactive) | > 100 µM (inactive) | > 100 µM (inactive) | 32.2 µM (inactive) | 83.6 µM (inactive) | > 100 µM (inactive) | 22.4 µM (inactive) | > 100 | > 100 µM (inactive) | 36.2 µM (inactive) | > 100 µM (inactive)
11 | CCOC(=O)[C@@H]1ON2O[C@@H](OC3CCCC3(c3ccccc3)c3ccccc3)C[C@H]3OC(=O)[C@@H]1C32 (some centres undefined) | 32.8 µM (inactive) | 33.8 µM (inactive) | 21.4 µM (inactive) | 20.7 µM (inactive) | > 100 µM (inactive) | 33.1 µM (inactive) | 33.8 µM (inactive) | 20.8 µM (inactive) | > 100 µM (inactive) | 35.6 µM (inactive) | 25.2 µM (inactive) | 24.7 µM (inactive) | 64.6 µM (inactive) | 30.2 µM (inactive) | 21.1 µM (inactive) | 31 µM (inactive) | 31 | 35.6 µM (inactive) | 24.9 µM (inactive) | 
12 | NNC(=O)c1cccc2c1Oc1ccccc1S2 |  | > 100 µM (inactive) | > 100 µM (inactive) |  | 18.2 µM (inactive) |  | > 100 µM (inactive) | > 100 µM (inactive) | 77.3 µM (inactive) | > 100 µM (inactive) | > 100 µM (inactive) | > 100 µM (inactive) | > 100 µM (inactive) | > 100 µM (inactive) | > 100 µM (inactive) | 95.9 µM (inactive) | > 100 | > 100 µM (inactive) | > 100 µM (inactive) | 97.3 µM (inactive)
13 | CCCCc1c2c(nc3c1CCc1cc(C=O)c(N)nc1-3)/C(=C/c1ccccc1)CCC2 | > 100 µM (inactive) | > 100 µM (inactive) | > 100 µM (inactive) |  | 19.9 µM (inactive) | > 100 µM (inactive) | > 100 µM (inactive) |  | > 100 µM (inactive) | > 100 µM (inactive) |  | > 100 µM (inactive) | > 100 µM (inactive) | > 100 µM (inactive) | > 100 µM (inactive) | > 100 µM (inactive) | 86.3 | 40.8 µM (inactive) | > 100 µM (inactive) | 
14 | CC(C)[Si](OC12CCC(CC1O)CC2CO)(C(C)C)C(C)C (centres undefined) | 22 µM (inactive) | 8 µM (inactive) | 13.7 µM (inactive) |  | 16.7 µM (inactive) |  |  | 12 µM (inactive) | 12.2 µM (inactive) | 10.2 µM (inactive) | 19.7 µM (inactive) | 21.1 µM (inactive) | 12.1 µM (inactive) | 10.5 µM (inactive) | 14.4 µM (inactive) | 16.4 µM (inactive) | 14.1 | 12.6 µM (inactive) | 23.4 µM (inactive) | 
15 | CCN(CCCl)CCCNc1c2ccccc2nc2ccc(OC)cc12 | 0.0548 µM (active) | 0.0585 µM (active) | 1.16 µM (inactive) |  | 1.19 µM (inactive) | 0.144 µM (active) | 0.102 µM (active) |  | 0.115 µM (active) | 0.0637 µM (active) |  | 0.0371 µM (active) | 0.133 µM (active) | 0.114 µM (active) | 1.01 µM (active) | 0.605 µM (active) | 0.257 | 0.0802 µM (active) | 0.142 µM (active) | 
16 | COc1cc(/C=C/c2ccncc2)cc(OC)c1OC | 96.2 µM (inactive) | > 100 µM (inactive) | > 100 µM (inactive) |  | 30.5 µM (inactive) | 32.3 µM (inactive) | 74.6 µM (inactive) |  | > 100 µM (inactive) | 52.4 µM (inactive) |  | > 100 µM (inactive) | 29.9 µM (inactive) | 72.4 µM (inactive) | 41 µM (inactive) | 53.6 µM (inactive) | 49.4 | > 100 µM (inactive) | > 100 µM (inactive) | 
17 | COc1ccc2[nH]c3c(c2c1)CCn1c-3nc2ccccc2c1=O | > 25 µM (inactive) | > 25 µM (inactive) | > 25 µM (inactive) | > 25 µM (inactive) |  | > 25 µM (inactive) | > 25 µM (inactive) | > 25 µM (inactive) | > 25 µM (inactive) | > 25 µM (inactive) | > 25 µM (inactive) | > 25 µM (inactive) |  | > 25 µM (inactive) | > 25 µM (inactive) | > 25 µM (inactive) | > 25 | > 25 µM (inactive) | > 25 µM (inactive) | 
